In patent publication US10053433B2, “Androgen receptor antagonists” (THE REGENTS OF THE UNIVERSITY OF CALIFORNIA, priority 2014, dated 2018):
Like-named read-outs stand apart in the source and are kept apart here.

Legend:
[1] = molecular target: full length AR (Homo sapiens (Human), UniProt P10275); assay: mmTV-luciferase reporter assay, full length AR in HeLa cells; type: cell-based
Method: In order to test the effect of antiandrogens on full length AR, a mmTV-luciferase reporter assay was used. An AR-response element is contained within the mmTV sequence and drives the expression of luciferase. The effect of antiandrogens (competitive antagonists) on this process is measured by quantifying the amount of luciferase activity after 24 hours in the presence of varying concentrations of antiandrogens. From these values, an IC50 for each antagonist is calculated. Experimentally, HeLa cells were maintained in Dulbecco's modified Eagle's medium H-21 4.5 g/L glucose, containing 10% steroid depleted fetal bovine serum, 50 units/mL penicillin. For transfection, (1×10^5) cells per well were plated and incubated overnight. […] Cells were induced with 1 nM DHT and 0.1 nM-30 uM compounds after 3 hrs and then incubated overnight. Cells were collected, and pellets were lysed in 100 μL of 100 mM Tris-HCl (pH 7.5) containing 0.1% Triton X-100. Luciferase and β-galactosidase activities were measured using the Luciferase Assay System (Promega) and Galacto-Light Plus-galactosidase reporter gene assay system (Applied Biosystems), according to the manufacturer's instructions.

[2] = molecular target: AR ligand-binding domain (AR LBD) (Homo sapiens (Human), UniProt P10275); assay: Gal4-luciferase reporter assay, Gal-AR LBD in HeLa cells; type: cell-based
Text: In order to test the effect of ligands on the AR ligand-binding domain (AR LBD), a Gal4-luciferase reporter assay was used. Briefly, the AR LBD is expressed as a fusion with the Gal4 transcription factor, which binds to the Gal4 reporter DNA. Upon activation with agonist hormone (DHT), the Gal-AR LBD binds to the Gal4 reporter gene, which in turn drives the transcription (and subsequently translation) of the reporter luciferase. The effect of antiandrogens (competitive antagonists) on this process is measured by quantifying the amount of luciferase activity after 24 hours in the presence of varying concentrations of antiandrogens. From these values, an IC50 for each antagonist is calculated. Experimentally, Hela cells were maintained in Dulbecco's modified Eagle's medium H-21 4.5 g/L glucose, containing 10% steroid depleted fetal bovine serum, 50 units/mL penicillin. For transfection, (1×10^5) cells per well were plated and incubated overnight. […] Cells were induced with 1 nM DHT and 0.1 nM-30 uM test compounds after 3 hr and then incubated over night. Cells were collected, and pellets were lysed in 100 μL of 100 mM Tris-HCl (pH 7.5) containing 0.1% Triton X-100. Luciferase and β-galactosidase activities were measured using the Luciferase Assay System (Promega) and Galacto-Light Plus-galactosidase reporter gene assay system (Applied Biosystems), according to the manufacturer's instructions.

[3] = molecular target: endogenous full length AR (Homo sapiens (Human), UniProt P10275, T878A); assay: mmTV-luciferase reporter assay, endogenous AR in LNCaP cells; type: cell-based; conditions: 10 nM DHT, read-out: LVCaP data
[4] = in vivo; cited from earlier work
[5] = full length AR, mmTV-luciferase reporter, HeLa cells, 1 nM DHT, read-out: FL IC50
[6] = in relationship to the experimental casodex data
[7] = Gal-AR LBD, Gal4-luciferase reporter, HeLa cells, 1 nM DHT, read-out: LBD IC50

Chain of full length AR (P10275 other isoform, or with tags, fused parts or gaps): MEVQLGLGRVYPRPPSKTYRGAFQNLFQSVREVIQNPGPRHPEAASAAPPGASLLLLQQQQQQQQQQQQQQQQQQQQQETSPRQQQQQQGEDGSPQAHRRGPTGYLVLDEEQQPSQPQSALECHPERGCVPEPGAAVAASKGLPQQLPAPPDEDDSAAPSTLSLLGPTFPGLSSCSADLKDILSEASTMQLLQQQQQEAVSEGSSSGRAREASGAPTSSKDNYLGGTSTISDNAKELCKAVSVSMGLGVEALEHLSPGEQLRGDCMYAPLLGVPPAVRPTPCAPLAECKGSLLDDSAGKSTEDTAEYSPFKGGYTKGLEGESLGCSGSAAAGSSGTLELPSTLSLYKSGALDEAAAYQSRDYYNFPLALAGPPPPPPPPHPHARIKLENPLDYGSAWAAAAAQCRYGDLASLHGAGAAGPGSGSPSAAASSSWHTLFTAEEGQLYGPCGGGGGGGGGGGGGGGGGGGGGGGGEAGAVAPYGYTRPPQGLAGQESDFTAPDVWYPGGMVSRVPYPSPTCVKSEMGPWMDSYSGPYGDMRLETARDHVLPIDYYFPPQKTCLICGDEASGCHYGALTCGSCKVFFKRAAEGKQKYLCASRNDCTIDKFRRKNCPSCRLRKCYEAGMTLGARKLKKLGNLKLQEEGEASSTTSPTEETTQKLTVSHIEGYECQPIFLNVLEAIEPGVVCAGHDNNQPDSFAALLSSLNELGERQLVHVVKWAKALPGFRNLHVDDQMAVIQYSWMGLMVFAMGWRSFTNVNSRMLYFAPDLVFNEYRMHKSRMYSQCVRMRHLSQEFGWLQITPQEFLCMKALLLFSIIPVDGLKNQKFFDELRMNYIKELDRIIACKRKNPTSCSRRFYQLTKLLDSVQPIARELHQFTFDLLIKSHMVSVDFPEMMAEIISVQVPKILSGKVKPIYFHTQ
Chain of AR ligand-binding domain (AR LBD) (P10275 669-900): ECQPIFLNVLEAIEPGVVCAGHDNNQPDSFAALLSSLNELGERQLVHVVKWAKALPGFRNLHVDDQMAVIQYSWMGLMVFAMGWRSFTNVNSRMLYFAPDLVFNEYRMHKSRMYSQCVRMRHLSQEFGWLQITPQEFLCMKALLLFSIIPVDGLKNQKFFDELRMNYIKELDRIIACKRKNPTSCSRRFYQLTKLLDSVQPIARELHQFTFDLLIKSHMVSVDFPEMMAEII
Chain of endogenous full length AR (P10275 whole entry T878A): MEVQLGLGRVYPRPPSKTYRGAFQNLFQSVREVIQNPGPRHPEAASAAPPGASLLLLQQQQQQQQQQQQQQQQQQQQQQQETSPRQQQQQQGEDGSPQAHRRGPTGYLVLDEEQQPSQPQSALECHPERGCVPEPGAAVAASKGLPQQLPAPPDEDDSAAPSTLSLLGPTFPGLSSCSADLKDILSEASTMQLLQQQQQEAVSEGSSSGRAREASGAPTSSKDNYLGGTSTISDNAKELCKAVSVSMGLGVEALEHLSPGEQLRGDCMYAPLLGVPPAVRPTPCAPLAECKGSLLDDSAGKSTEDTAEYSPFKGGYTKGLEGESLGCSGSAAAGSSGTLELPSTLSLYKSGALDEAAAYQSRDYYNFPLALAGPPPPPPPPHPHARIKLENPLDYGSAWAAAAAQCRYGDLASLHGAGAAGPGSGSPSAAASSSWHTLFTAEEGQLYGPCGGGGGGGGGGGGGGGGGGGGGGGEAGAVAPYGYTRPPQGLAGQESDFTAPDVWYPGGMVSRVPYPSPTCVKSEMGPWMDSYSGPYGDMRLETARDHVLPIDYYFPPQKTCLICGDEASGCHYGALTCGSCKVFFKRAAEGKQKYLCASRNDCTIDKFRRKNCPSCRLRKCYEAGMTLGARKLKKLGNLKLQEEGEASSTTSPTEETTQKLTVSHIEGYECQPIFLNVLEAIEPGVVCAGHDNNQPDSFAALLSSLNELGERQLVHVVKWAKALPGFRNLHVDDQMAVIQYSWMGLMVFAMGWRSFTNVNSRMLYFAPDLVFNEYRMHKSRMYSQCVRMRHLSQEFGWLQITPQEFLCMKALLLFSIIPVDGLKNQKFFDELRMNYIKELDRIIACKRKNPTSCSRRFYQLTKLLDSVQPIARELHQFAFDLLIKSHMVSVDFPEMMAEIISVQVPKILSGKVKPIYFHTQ

SMILES	IC50 [2]	IC50 [1, 5]	Fold chg (FL) [1, 6]	IC50 [2, 7]	Fold chg (LBD) [2, 6]	Fold change* ([2]; Table 4, relative to CDX)	also measured
C[C@](O)(CS(=O)(=O)c1ccc(F)cc1)C(=O)Nc1cc(C(F)(F)F)c(C#N)cn1 [FC 3.077]	490 ± 60 nM	–	–	–	–	–	Fold chg (FL) [1]: 0.33; Fold change* [2]: 0.74; Fold chg (LBD) [2]: 0.74
C=CS(=O)(=O)C(c1ccc(NC(=O)[C@@](C)(O)CS(=O)(=O)c2ccc(F)cc2)cc1C(F)(F)F)S(=O)(=O)C=C [FC 4.025]	–	1.29 ± 1.29 µM	0.78	580 ± 110 nM	0.62	–	–
C=CC(=O)Nc1ccc(NC(=O)[C@@](C)(O)CS(=O)(=O)c2ccc(F)cc2)cc1C(F)(F)F [FC 4.039]	–	–	–	750 ± 260 nM	0.48	–	–
C[C@](O)(CS(=O)(=O)c1ccc(F)cc1)C(=O)Nc1cccc(C(F)(F)F)c1 [FC 4.116]	–	71.7 µM	0.014	2530 ± 1160 nM	0.14	0.14	IC50 [3]: 530 ± 270 nM
C[C@](O)(CS(=O)(=O)c1ccc(F)cc1)C(=O)Nc1cc(C(F)(F)F)ccn1 [FC 4.125]	22400 ± 41800 nM	–	–	–	0.016	0.016	–
C[C@](O)(CS(=O)(=O)c1ccc(F)cc1)C(=O)Nc1cncc(C(F)(F)F)c1 [FC 4.126]	–	12.4 ± 14.2 µM	0.08	1550 ± 410 nM	0.23	0.23	IC50 [3]: 110 ± 20 nM
C[C@](O)(CS(=O)(=O)c1ccc(F)cc1)C(=O)Nc1ccc([N+](=O)[O-])c(C(F)(F)F)c1 [FC 4.127]	7260 ± 10700 nM	–	–	–	–	–	Fold chg (FL) [1]: 0.11; IC50 [1]: 8.74 ± 15.8 µM; Fold change* [2]: 0.05; Fold chg (LBD) [2]: 0.050
CC(O)(CS(=O)(=O)c1ccc(F)cc1)C(=O)Nc1ccc(C#N)c(C(F)(F)F)c1 (stereo not shown) [bicalutamide]	–	–	–	–	–	–	tolerability [4]: well tolerated with very few side effects
